Source: the supplement of paper PMC9103864

Columns and labels:
[1] = system: BMSC (primary human bone marrow mesenchymal stromal cells); test: absolute EC50 for viability; higher = less sensitive
[2] = system: BMSC (primary human bone marrow mesenchymal stromal cells); test: drug sensitivity score (DSS); higher = more sensitive

For `CCN(CCCOc1ccc2c(Nc3cc(CC(=O)Nc4cccc(F)c4)[nH]n3)ncnc2c1)CCOP(=O)(O)O` [Barasertib], the “absolute EC50 for viability” value [1] was over 1 µM and the drug sensitivity score [2] was 0.1.

`CCS(=O)(=O)N1CC(CC#N)(n2cc(-c3ncnc4[nH]ccc34)cn2)C1` [Baricitinib] was tested, and the “absolute EC50 for viability” value [1] was over 2.5 µM and the drug sensitivity score [2] was 0.1.

`O=C(/C=C/c1cccc(S(=O)(=O)Nc2ccccc2)c1)NO` [Belinostat] was tested, and the “absolute EC50 for viability” value [1] was 2.23 µM and the drug sensitivity score [2] was 7.2.

With `N#CC(c1ccnc(OCc2ccc(CN3CCOCC3)cc2)n1)c1nc2ccccc2s1` (stereo not drawn) [Bentamapimod] the “absolute EC50 for viability” value [1] was over 10 µM and the drug sensitivity score [2] was 0.

For `C=C(c1ccc(C(=O)O)cc1)c1cc2c(cc1C)C(C)(C)CCC2(C)C` [Bexarotene], the “absolute EC50 for viability” value [1] was over 10 µM and the drug sensitivity score [2] was 0.

In the case of `CCNC(=O)CCC/C=C\C[C@@H]1[C@@H](/C=C/[C@@H](O)CCc2ccccc2)[C@H](O)C[C@@H]1O` [Bimatoprost], the “absolute EC50 for viability” value [1] is reported as over 5.5 µM and the drug sensitivity score [2] is reported as -0.9.

For `Cn1cnc2c(F)c(Nc3ccc(Br)cc3F)c(C(=O)NOCCO)cc21` [Binimetinib], the “absolute EC50 for viability” value [1] was over 1 µM and the drug sensitivity score [2] was 1.9.

For `Cc1sc2c(c1C)C(c1ccc(Cl)cc1)=N[C@@H](CC(=O)Nc1ccc(O)cc1)c1nnc(C)n1-2` [Birabresib], the “absolute EC50 for viability” value [1] was over 10 µM and the drug sensitivity score [2] was 4.9.

For `CC[C@H](NC(=O)[C@H](C)NC)C(=O)N1C[C@@H](O)C[C@H]1Cc1c(-c2[nH]c3cc(F)ccc3c2C[C@@H]2C[C@H](O)CN2C(=O)[C@H](CC)NC(=O)[C@H](C)NC)[nH]c2cc(F)ccc12` [Birinapant], the “absolute EC50 for viability” value [1] was over 1 µM and the drug sensitivity score [2] was 0.

With `Cc1c(N)nc([C@H](CC(N)=O)NC[C@H](N)C(N)=O)nc1C(=O)N[C@H](C(=O)N[C@H](C)[C@@H](O)[C@H](C)C(=O)N[C@H](C(=O)NCCc1nc(-c2nc(C(=O)NCCC[S+](C)C)cs2)cs1)[C@@H](C)O)[C@@H](OC1OC(CO)C(O)C(O)C1OC1OC(CO)C(O)C(OC(N)=O)C1O)c1cnc[nH]1` (stereo partly drawn) [Bleomycin] the “absolute EC50 for viability” value [1] was over 10 µM and the drug sensitivity score [2] was 2.5.

With `CC(C)C[C@H](NC(=O)[C@H](Cc1ccccc1)NC(=O)c1cnccn1)B(O)O` [Bortezomib] the “absolute EC50 for viability” value [1] was 0.0507 µM and the drug sensitivity score [2] was 14.5.

With `COc1cc(Nc2c(C#N)cnc3cc(OCCCN4CCN(C)CC4)c(OC)cc23)c(Cl)cc1Cl` [Bosutinib] the “absolute EC50 for viability” value [1] was 1.69 µM and the drug sensitivity score [2] was 8.8.

In the case of `COc1cc(N2CCC(N3CCN(C)CC3)CC2)ccc1Nc1ncc(Cl)c(Nc2ccccc2P(C)(C)=O)n1` [Brigatinib], the “absolute EC50 for viability” value [1] is reported as 0.945 µM and the drug sensitivity score [2] is reported as 2.8.

`Cc1cc2c(F)c(Oc3ncnn4cc(OC[C@@H](C)O)c(C)c34)ccc2[nH]1` [Brivanib] was tested, and the “absolute EC50 for viability” value [1] was over 1 µM and the drug sensitivity score [2] was 0.

`CCC/C=C/C=C/C(=O)O[C@H]1/C(=C/C(=O)OC)C[C@H]2C[C@H]([C@@H](C)O)OC(=O)C[C@H](O)C[C@@H]3C[C@H](OC(C)=O)C(C)(C)[C@](O)(C[C@@H]4C/C(=C/C(=O)OC)C[C@H](/C=C/C(C)(C)[C@]1(O)O2)O4)O3` [Bryostatin 1] was tested, and the “absolute EC50 for viability” value [1] was over 0.1 µM and the drug sensitivity score [2] was 0.

In the case of `Nc1cc(C(F)(F)F)c(-c2cc(N3CCOCC3)nc(N3CCOCC3)n2)cn1` [Buparlisib], the “absolute EC50 for viability” value [1] is reported as 2.11 µM and the drug sensitivity score [2] is reported as 7.8.

`Cc1nc2cccc(N)c2c(=O)n1C1CCC(=O)NC1=O` (stereo not drawn) [CC122] was tested, and the “absolute EC50 for viability” value [1] was 9.93 µM and the drug sensitivity score [2] was 0.

With `CCN1C(=O)CNc2ncc(-c3ccc(-c4nc[nH]n4)nc3C)nc21` [CC-115] the “absolute EC50 for viability” value [1] was 2.86 µM and the drug sensitivity score [2] was 6.9.

In the case of `CO[C@H]1CC[C@H](N2C(=O)CNc3ncc(-c4ccc(C(C)(C)O)nc4)nc32)CC1` [CC-223], the “absolute EC50 for viability” value [1] is reported as 6.04 µM and the drug sensitivity score [2] is reported as 4.4.

With `COc1cc(C)[nH]c(=O)c1CNC(=O)c1c(C)n([C@H](C)C2CCOCC2)c2ccccc12` [CPI-360] the “absolute EC50 for viability” value [1] was over 10 µM and the drug sensitivity score [2] was 0.

With `Cc1noc2c1-c1ccccc1C(c1ccc(Cl)cc1)=N[C@H]2CC(N)=O` [CPI-0610] the “absolute EC50 for viability” value [1] was over 10 µM and the drug sensitivity score [2] was 0.

For `O=C(O)CCCCC(CCSCc1ccccc1)SCc1ccccc1` (stereo not drawn) [CPI-613], the “absolute EC50 for viability” value [1] was over 10 µM and the drug sensitivity score [2] was 0.

With `CN(C)c1cc2c(cc1Sc1nc3c(N)nccc3n1CCNCC(C)(C)C)OCO2` [CUDC-305] the “absolute EC50 for viability” value [1] was 1.15 µM and the drug sensitivity score [2] was 8.8.

`COc1ccc(-c2nc(N3CCOCC3)c3sc(CN(C)c4ncc(C(=O)NO)cn4)cc3n2)cn1` [CUDC-907] was tested, and the “absolute EC50 for viability” value [1] was 0.0649 µM and the drug sensitivity score [2] was 24.6.

`CO[C@H]1C(=O)[C@]2(C)[C@@H](OC)C[C@H]3OC[C@@]3(OC(C)=O)[C@H]2[C@H](OC(=O)c2ccccc2)[C@]2(O)C[C@H](OC(=O)[C@H](O)[C@@H](NC(=O)OC(C)(C)C)c3ccccc3)C(C)=C1C2(C)C` [Cabazitaxel] was tested, and the “absolute EC50 for viability” value [1] was over 1 µM and the drug sensitivity score [2] was 7.2.

`COc1cc2nccc(Oc3ccc(NC(=O)C4(C(=O)Nc5ccc(F)cc5)CC4)cc3)c2cc1OC` [Cabozantinib] was tested, and the “absolute EC50 for viability” value [1] was over 1 µM and the drug sensitivity score [2] was 3.6.

`C=CC(=O)Nc1cc2c(Nc3ccc(F)c(Cl)c3)ncnc2cc1OCCCN1CCOCC1` [Canertinib] was tested, and the “absolute EC50 for viability” value [1] was over 10 µM and the drug sensitivity score [2] was 3.7.

With `CCCCCOC(=O)Nc1nc(=O)n([C@@H]2O[C@H](C)[C@@H](O)[C@H]2O)cc1F` [Capecitabine] the “absolute EC50 for viability” value [1] was over 10 µM and the drug sensitivity score [2] was 0.

With `CNC(=O)c1ccc(-c2cnc3ncc(Cc4ccc5ncccc5c4)n3n2)cc1F` [Capmatinib] the “absolute EC50 for viability” value [1] was over 1 µM and the drug sensitivity score [2] was 0.5.

For `O=C(O)C1(C(=O)O)CCC1.[NH2-].[NH2-].[Pt+2]` [Carboplatin], the “absolute EC50 for viability” value [1] was over 100 µM and the drug sensitivity score [2] was 2.5.

In the case of `CC(C)C[C@H](NC(=O)[C@H](CCc1ccccc1)NC(=O)CN1CCOCC1)C(=O)N[C@@H](Cc1ccccc1)C(=O)N[C@@H](CC(C)C)C(=O)[C@@]1(C)CO1` [Carfilzomib], the “absolute EC50 for viability” value [1] is reported as 0.0187 µM and the drug sensitivity score [2] is reported as 19.7.

In the case of `COc1cc2c(Oc3ccc4[nH]c(C)cc4c3F)ncnc2cc1OCCCN1CCCC1` [Cediranib], the “absolute EC50 for viability” value [1] is reported as over 1 µM and the drug sensitivity score [2] is reported as 2.5.

For `Cc1ccc(-c2cc(C(F)(F)F)nn2-c2ccc(S(N)(=O)=O)cc2)cc1` [Celecoxib], the “absolute EC50 for viability” value [1] was over 10 µM and the drug sensitivity score [2] was 0.

For `CCS(=O)(=O)N1CCN(c2ccc(Nc3ncc(C(N)=O)c(NC4CC4)n3)cc2)CC1` [Cerdulatinib], the “absolute EC50 for viability” value [1] was over 10 µM and the drug sensitivity score [2] was 5.1.

In the case of `Cc1cc(Nc2ncc(Cl)c(Nc3ccccc3S(=O)(=O)C(C)C)n2)c(OC(C)C)cc1C1CCNCC1` [Ceritinib], the “absolute EC50 for viability” value [1] is reported as over 2.5 µM and the drug sensitivity score [2] is reported as 1.3.

`CCN(CC)CCCC(C)Nc1ccnc2cc(Cl)ccc12` (stereo not drawn) [Chloroquine] was tested, and the “absolute EC50 for viability” value [1] was 12.8 µM and the drug sensitivity score [2] was 10.3.

With `CC(C)[C@H]1C(=O)N[C@@H](CCCNC(=N)N)C(=O)NCC(=O)N[C@@H](CC(=O)O)C(=O)N[C@H](Cc2ccccc2)C(=O)N1C` [Cilengitide] the “absolute EC50 for viability” value [1] was over 10 µM and the drug sensitivity score [2] was 1.4.

In the case of `N.N.[Cl][Pt][Cl]` [Cisplatin], the “absolute EC50 for viability” value [1] is reported as 48.5 µM and the drug sensitivity score [2] is reported as 3.6.

For `Nc1nc(Cl)nc2c1ncn2[C@H]1C[C@H](O)[C@@H](CO)O1` [Cladribine], the “absolute EC50 for viability” value [1] was over 1 µM and the drug sensitivity score [2] was 2.3.

In the case of `Nc1nc(Cl)nc2c1ncn2[C@@H]1O[C@H](CO)[C@@H](O)[C@@H]1F` [Clofarabine], the “absolute EC50 for viability” value [1] is reported as 0.739 µM and the drug sensitivity score [2] is reported as 11.4.

`CCN(CC)CCOc1ccc(C(=C(Cl)c2ccccc2)c2ccccc2)cc1` [Clomifene] was tested, and the “absolute EC50 for viability” value [1] was over 10 µM and the drug sensitivity score [2] was 0.9.

`O=C(c1ccc(F)c(F)c1Nc1ccc(I)cc1F)N1CC(O)([C@@H]2CCCCN2)C1` [Cobimetinib] was tested, and the “absolute EC50 for viability” value [1] was over 1 µM and the drug sensitivity score [2] was 4.3.

`COc1c(OCCCN2CCOCC2)ccc2c3n(c(=NC(=O)c4cnc(N)nc4)nc12)CCN3` [Copanlisib] was tested, and the “absolute EC50 for viability” value [1] was 0.126 µM and the drug sensitivity score [2] was 13.

`CC1(COc2ccc3c(c2)ncn3-c2ccc3cccc(N4CCC(N)CC4)c3n2)COC1` [Crenolanib] was tested, and the “absolute EC50 for viability” value [1] was 1.84 µM and the drug sensitivity score [2] was 8.5.

`C[C@@H](Oc1cc(-c2cnn(C3CCNCC3)c2)cnc1N)c1c(Cl)ccc(F)c1Cl` [Crizotinib] was tested, and the “absolute EC50 for viability” value [1] was over 1 µM and the drug sensitivity score [2] was 0.2.

In the case of `Nc1ccn([C@@H]2O[C@H](CO)[C@@H](O)[C@@H]2O)c(=O)n1` [Cytarabine], the “absolute EC50 for viability” value [1] is reported as over 10 µM and the drug sensitivity score [2] is reported as 1.2.

For `CC(C)(C)c1nc(-c2cccc(NS(=O)(=O)c3c(F)cccc3F)c2F)c(-c2ccnc(N)n2)s1` [Dabrafenib], the “absolute EC50 for viability” value [1] was over 2.5 µM and the drug sensitivity score [2] was 0.

For `COc1cc2ncnc(Nc3ccc(F)c(Cl)c3)c2cc1NC(=O)/C=C/CN1CCCCC1` [Dacomitinib], the “absolute EC50 for viability” value [1] was over 1 µM and the drug sensitivity score [2] was 2.2.

For `Cc1c2oc3c(C)ccc(C(=O)N[C@@H]4C(=O)N[C@H](C(C)C)C(=O)N5CCC[C@H]5C(=O)N(C)CC(=O)N(C)[C@@H](C(C)C)C(=O)O[C@@H]4C)c3nc-2c(C(=O)N[C@@H]2C(=O)N[C@H](C(C)C)C(=O)N3CCC[C@H]3C(=O)N(C)CC(=O)N(C)[C@@H](C(C)C)C(=O)O[C@@H]2C)c(N)c1=O` [Dactinomycin], the “absolute EC50 for viability” value [1] was 0.0507 µM and the drug sensitivity score [2] was 19.

`Cn1c(=O)n(-c2ccc(C(C)(C)C#N)cc2)c2c3cc(-c4cnc5ccccc5c4)ccc3ncc21` [Dactolisib] was tested, and the “absolute EC50 for viability” value [1] was 0.114 µM and the drug sensitivity score [2] was 10.7.

`CO[C@@H](C(=O)N1Cc2[nH]nc(NC(=O)c3ccc(N4CCN(C)CC4)cc3)c2C1)c1ccccc1` [Danusertib] was tested, and the “absolute EC50 for viability” value [1] was over 10 µM and the drug sensitivity score [2] was 3.6.

For `O=C(/C=C/c1cccnc1)NCCCCC1CCN(C(=O)c2ccccc2)CC1` [Daporinad], the “absolute EC50 for viability” value [1] was over 1 µM and the drug sensitivity score [2] was 0.2.

For `CCN(CC)CCN(Cc1ccc(-c2ccc(C(F)(F)F)cc2)cc1)C(=O)Cn1c(SCc2ccc(F)cc2)nc(=O)c2c1CCC2` [Darapladib], the “absolute EC50 for viability” value [1] was over 1 µM and the drug sensitivity score [2] was 0.

`Cc1nc(Nc2ncc(C(=O)Nc3c(C)cccc3Cl)s2)cc(N2CCN(CCO)CC2)n1` [Dasatinib] was tested, and the “absolute EC50 for viability” value [1] was 0.132 µM and the drug sensitivity score [2] was 9.2.
